Drawing on publication PMC11990191, “Pharmacochemical Studies of Synthesized Coumarin–Isoxazole–Pyridine Hybrids” (Molecules, 2025), this text covers IC50 for two molecules.

The target of this assay is T1, soybean lipoxygenase (sLOX) (Glycine max, UniProt P08170).
T1 construct: gene LOX1.1
T1 sequence (P08170 1-839): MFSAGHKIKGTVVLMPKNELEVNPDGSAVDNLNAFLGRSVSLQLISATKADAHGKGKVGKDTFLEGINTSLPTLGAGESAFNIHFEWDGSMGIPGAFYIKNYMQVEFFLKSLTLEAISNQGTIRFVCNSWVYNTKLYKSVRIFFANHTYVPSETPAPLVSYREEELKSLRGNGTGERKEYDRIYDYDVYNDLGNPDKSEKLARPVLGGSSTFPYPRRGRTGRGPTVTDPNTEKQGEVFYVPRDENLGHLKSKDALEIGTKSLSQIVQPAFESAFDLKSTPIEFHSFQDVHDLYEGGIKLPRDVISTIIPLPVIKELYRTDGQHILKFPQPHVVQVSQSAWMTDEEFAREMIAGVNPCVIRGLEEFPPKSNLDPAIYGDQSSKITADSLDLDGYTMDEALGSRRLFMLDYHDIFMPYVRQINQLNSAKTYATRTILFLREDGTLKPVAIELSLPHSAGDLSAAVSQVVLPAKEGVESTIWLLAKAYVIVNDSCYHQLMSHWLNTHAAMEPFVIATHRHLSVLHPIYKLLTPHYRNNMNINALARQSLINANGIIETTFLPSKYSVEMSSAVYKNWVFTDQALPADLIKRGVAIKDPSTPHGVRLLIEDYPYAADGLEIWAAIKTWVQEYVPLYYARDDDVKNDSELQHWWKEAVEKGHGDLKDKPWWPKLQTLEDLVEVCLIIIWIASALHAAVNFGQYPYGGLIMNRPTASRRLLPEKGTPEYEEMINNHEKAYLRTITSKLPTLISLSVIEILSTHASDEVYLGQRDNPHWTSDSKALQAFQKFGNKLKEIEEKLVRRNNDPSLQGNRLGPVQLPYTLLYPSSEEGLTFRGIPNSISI
In words: UV absorbance enzyme assay at […] nm, sodium linoleate substrate, pH […]. The class given is biochemical. The following applies: read-out: LOX(%)/ IC50.

On to `O=c1cc(OCc2cc(-c3ccncc3)no2)c2ccccc2o1` [13a, 4-((3-(Pyridin-4-yl)isoxazol-5-yl)methoxy)-2H-chromen-2-one], for which the IC50 is 5 µM.

Regarding `O=c1ccc2ccc(OCc3cc(-c4cccnc4)no3)cc2o1` [7a, 7-((3-(Pyridin-3-yl)isoxazol-5-yl)methoxy)-2H-chromen-2-one], the IC50 worked out at 10 µM.
